Experimental data from PubChem BioAssay (NCI).
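Results reflect a 48-hour exposure of cells in 96-well plates to compound at five concentrations. GI50: concentration for 50% inhibition of growth. TGI marks complete inhibition of growth.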

Columns and labels:
Test in all cases: NCI-60 cell line screen, 48 h
[1] = test system: UACC-62 melanoma
[2] = test system: TK-10 renal
[3] = test system: SK-MEL-5 melanoma
[4] = test system: 786-0 renal
[5] = test system: SN12C renal
[6] = test system: PC-3 prostate
[7] = test system: SK-MEL-2 melanoma
[8] = test system: UACC-257 melanoma
[9] = test system: EKVX NSCLC
[10] = test system: NCI-H522 lung
[11] = test system: U251 CNS
[12] = test system: MOLT-4 leukemia
[13] = test system: OVCAR-3 ovarian
[14] = test system: HOP-92 NSCLC
[15] = test system: HT29 colon
[16] = test system: OVCAR-5 ovarian
[17] = test system: SK-MEL-28 melanoma
[18] = test system: HS 578T breast
[19] = test system: NCI-H226 lung
[20] = test system: HCT-15 colon
[21] = test system: NCI/ADR-RES ovarian
[22] = test system: SK-OV-3 ovarian
[23] = test system: CCRF-CEM leukemia
[24] = test system: RXF 393 renal
[25] = test system: SF-268 CNS
[26] = test system: ACHN renal
[27] = test system: OVCAR-8 ovarian
[28] = test system: MALME-3M melanoma
[29] = test system: MDA-MB-231 breast
[30] = test system: NCI-H23 lung
[31] = test system: HCC-2998 colon
[32] = test system: COLO 205 colon
[33] = test system: RPMI-8226 leukemia
[34] = test system: KM12 colon
[35] = test system: MCF7 breast
[36] = test system: M14 melanoma
[37] = test system: BT-549 breast
[38] = test system: SF-295 CNS
[39] = test system: A498 renal
[40] = test system: UO-31 renal
[41] = test system: HCT-116 colon
[42] = test system: IGROV1 ovarian
[43] = test system: T-47D breast
[44] = test system: MDA-MB-435
[45] = test system: SNB-75 CNS
[46] = test system: LOX IMVI melanoma
[47] = test system: SR leukemia
[48] = test system: CAKI-1 renal
[49] = test system: SNB-19 CNS
[50] = test system: NCI-H460 lung
[51] = test system: SW-620 colon
[52] = test system: HL-60(TB) leukemia
[53] = test system: A549 NSCLC
[54] = test system: SF-539 CNS
[55] = test system: OVCAR-4 ovarian
[56] = test system: K-562 leukemia
[57] = test system: HOP-62 NSCLC

Work on `CCN1C(=O)N(CC)C2C1NC(=S)N2/N=C/C=C/c1ccccc1OC` (configuration not stated) yielded a GI50 [1] of 0.0458 µM, a TGI [1] greater than 100 µM and a GI50 [2] of 30.9 µM. It also gave a TGI [2] greater than 100 µM, a GI50 [3] of 0.0305 µM and a TGI [3] of 0.158 µM. The GI50 [4] was less than 0.0212 µM, the TGI [4] was greater than 100 µM and the GI50 [5] was 0.0494 µM. For the same compound, the TGI [5] was greater than 100 µM, the GI50 [6] was 0.0411 µM and the TGI [6] was greater than 100 µM. It also gave a GI50 [7] of 1.1 µM, a TGI [7] greater than 100 µM and a GI50 [8] greater than 100 µM. It also gave a TGI [8] greater than 100 µM, a GI50 [9] of 0.0532 µM and a TGI [9] greater than 100 µM. The GI50 [10] was 0.0253 µM, the GI50 [11] was 0.0427 µM and the TGI [11] was greater than 100 µM. It also gave a GI50 [12] of 0.0427 µM, a TGI [12] greater than 100 µM and a GI50 [13] of 0.0351 µM. For the same compound, the TGI [13] was 1.16 µM, the GI50 [14] was 0.0269 µM and the TGI [14] was 27.1 µM. For the same compound, the GI50 [15] was 0.0361 µM, the TGI [15] was greater than 100 µM and the GI50 [16] was 0.0715 µM. It also gave a TGI [16] greater than 100 µM, a GI50 [17] of 16.1 µM and a TGI [17] greater than 100 µM. The GI50 [18] was 0.0514 µM, the TGI [18] was greater than 100 µM and the GI50 [19] was 0.0458 µM. The TGI [19] was greater than 100 µM, the GI50 [20] was 0.0341 µM and the TGI [20] was greater than 100 µM. The GI50 [21] was 0.0311 µM, the TGI [21] was greater than 100 µM and the GI50 [22] was 0.0368 µM. It also gave a TGI [22] greater than 100 µM, a GI50 [23] of 0.0373 µM and a TGI [23] greater than 100 µM. It also gave a GI50 [24] of 0.0521 µM, a TGI [24] greater than 100 µM and a GI50 [25] of 0.0535 µM. The TGI [25] was greater than 100 µM, the GI50 [26] was 0.0401 µM and the TGI [26] was greater than 100 µM. It also gave a GI50 [27] of 0.0378 µM, a TGI [27] greater than 100 µM and a GI50 [28] of 0.0599 µM. The TGI [28] was greater than 100 µM, the GI50 [29] was 0.0413 µM and the GI50 [30] was 0.0412 µM. For the same compound, the TGI [30] was greater than 100 µM, the GI50 [31] was 0.0343 µM and the TGI [31] was 16.2 µM. For the same compound, the GI50 [32] was 0.0315 µM, the TGI [32] was 0.7 µM and the GI50 [33] was 0.0431 µM. For the same compound, the TGI [33] was 30.9 µM, the GI50 [34] was 0.0406 µM and the TGI [34] was greater than 100 µM. It also gave a GI50 [35] of 0.0406 µM, a TGI [35] greater than 100 µM and a GI50 [36] of less than 0.0184 µM. The TGI [36] was greater than 100 µM, the GI50 [37] was 0.0258 µM and the TGI [37] was 38.2 µM. It also gave a GI50 [38] of 0.0306 µM, a TGI [38] greater than 100 µM and a GI50 [39] of 0.0295 µM. It also gave a TGI [39] of 0.0888 µM, a GI50 [40] of 0.0879 µM and a TGI [40] greater than 87.5 µM. It also gave a GI50 [41] of less than 0.0182 µM, a TGI [41] greater than 55.9 µM and a GI50 [42] of 0.0411 µM. The TGI [42] was greater than 100 µM, the GI50 [43] was 34.6 µM and the TGI [43] was greater than 100 µM. For the same compound, the GI50 [44] was 0.0189 µM, the TGI [44] was 0.0539 µM and the GI50 [45] was 0.0389 µM. The TGI [45] was greater than 100 µM, the GI50 [46] was 0.0342 µM and the TGI [46] was greater than 100 µM. It also gave a GI50 [47] of 0.0387 µM, a TGI [47] greater than 100 µM and a GI50 [48] of 0.0514 µM. For the same compound, the TGI [48] was greater than 100 µM, the GI50 [49] was 0.0482 µM and the TGI [49] was greater than 100 µM. For the same compound, the GI50 [50] was 0.037 µM, the TGI [50] was greater than 100 µM and the GI50 [51] was 0.0475 µM. It also gave a TGI [51] greater than 100 µM, a GI50 [52] of 0.0264 µM and a TGI [52] of 0.0722 µM. It also gave a GI50 [53] of 0.0403 µM, a TGI [53] greater than 100 µM and a GI50 [54] of 0.0228 µM. For the same compound, the TGI [54] was 0.0771 µM, the GI50 [55] was 0.125 µM and the TGI [55] was greater than 100 µM. The GI50 [56] was 0.0276 µM, the TGI [56] was greater than 100 µM and the GI50 [57] was 0.0463 µM. It also gave a TGI [57] greater than 100 µM.
